Test results as given in ChEMBL document CHEMBL1201862, “PubChem BioAssay data set” (2004).
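Values below derive from 48-hour exposures of cells grown in 96-well plates, with endpoints linearly interpolated between the two concentrations bracketing the appropriate inhibition level. GI50 = concentration required for 50% inhibition of growth.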 Active and inactive are the calls of the source. No stated cut-off is given here; in the data, active = GI50 up to about 1.1 µM and inactive = higher.

What was measured:
Assay in all cases: NCI tumour cell line growth inhibition, 48 h
HCT-116 = test system: HCT-116
SF-295 = test system: SF-295
NCI-H522 = test system: NCI-H522
MOLT-4 = test system: MOLT-4
SN12C = test system: SN12C
786-0 = test system: 786-0
NCI-H460 = test system: NCI-H460
IGROV-1 = test system: IGROV-1
HCT-15 = test system: HCT-15
OVCAR-3 = test system: OVCAR-3
U-251 = test system: U-251
SNB-19 = test system: SNB-19
KM12 = test system: KM12
NCI/ADR-RES = test system: NCI/ADR-RES
SF-268 = test system: SF-268
RPMI-8226 = test system: RPMI-8226
UO-31 = test system: UO-31
K562 = test system: K562
HL-60 = test system: HL-60

SMILES | GI50 (HCT-116) | GI50 (SF-295) | GI50 (NCI-H522) | GI50 (MOLT-4) | GI50 (SN12C) | GI50 (786-0) | GI50 (NCI-H460) | GI50 (IGROV-1) | GI50 (HCT-15) [µM] | GI50 (OVCAR-3) | GI50 (U-251) | GI50 (SNB-19) | GI50 (KM12) | GI50 (NCI/ADR-RES) | GI50 (SF-268) | GI50 (RPMI-8226) | GI50 (UO-31) | GI50 (K562) | GI50 (HL-60)
O=C(O)CCC(=O)c1ccc[nH]1 | > 100 µM (inactive) | > 100 µM (inactive) | > 100 µM (inactive) | > 100 µM (inactive) | 6.56 µM (inactive) | > 100 µM (inactive) | > 100 µM (inactive) | > 100 µM (inactive) | > 100 | > 100 µM (inactive) | > 100 µM (inactive) | > 100 µM (inactive) | > 100 µM (inactive) | > 100 µM (inactive) | > 100 µM (inactive) | > 100 µM (inactive) | > 100 µM (inactive) | > 100 µM (inactive) | –
O=C(O)CCCCn1cnc2c(S)ncnc21 | > 100 µM (inactive) | > 100 µM (inactive) | > 100 µM (inactive) | > 100 µM (inactive) | > 100 µM (inactive) | > 100 µM (inactive) | > 100 µM (inactive) | > 100 µM (inactive) | > 100 | > 100 µM (inactive) | > 100 µM (inactive) | > 100 µM (inactive) | > 100 µM (inactive) | > 100 µM (inactive) | > 100 µM (inactive) | > 100 µM (inactive) | > 100 µM (inactive) | > 100 µM (inactive) | –
COc1cccc(C2c3cc4c(cc3OC(Nc3ccccc3)C2C)OCO4)c1OC (centres undefined) | 3.52 µM (inactive) | 5.55 µM (inactive) | 3.36 µM (inactive) | 1.81 µM (inactive) | 6.4 µM (inactive) | 10.6 µM (inactive) | 3.43 µM (inactive) | 14.9 µM (inactive) | 4.37 | 5.36 µM (inactive) | 5.94 µM (inactive) | > 100 µM (inactive) | 4.02 µM (inactive) | – | 8.73 µM (inactive) | 1.64 µM (inactive) | 4.19 µM (inactive) | 2.64 µM (inactive) | 2.1 µM (inactive)
C/C(CCN(C)C)=N/O | 0.531 µM (active) | 26.8 µM (inactive) | – | 0.328 µM (active) | 14.3 µM (inactive) | 2.81 µM (inactive) | 1.64 µM (inactive) | 18.9 µM (inactive) | 11.7 | 1.29 µM (inactive) | 6.59 µM (inactive) | 35.9 µM (inactive) | 12.5 µM (inactive) | – | 1.49 µM (inactive) | 0.313 µM (active) | 16 µM (inactive) | 0.292 µM (active) | 0.281 µM (active)
CNC(=O)CCCNC(=O)CCCCC(=O)N(C)C | > 100 µM (inactive) | > 100 µM (inactive) | > 100 µM (inactive) | 89.5 µM (inactive) | > 100 µM (inactive) | > 100 µM (inactive) | > 100 µM (inactive) | – | – | > 100 µM (inactive) | > 100 µM (inactive) | > 100 µM (inactive) | > 100 µM (inactive) | > 100 µM (inactive) | > 100 µM (inactive) | > 100 µM (inactive) | > 100 µM (inactive) | > 100 µM (inactive) | –
CN(CCCNC(=O)c1cn(C)c2c1Cc1ccccc1-2)CCCNC(=O)c1cn(C)c2c1Cc1ccccc1-2 | 9.33 µM (inactive) | 12.3 µM (inactive) | – | 3.35 µM (inactive) | 13.4 µM (inactive) | 4.83 µM (inactive) | 8.89 µM (inactive) | 6.24 µM (inactive) | 11.2 | 15.6 µM (inactive) | 7.43 µM (inactive) | 11.4 µM (inactive) | 13 µM (inactive) | 12.5 µM (inactive) | 5.14 µM (inactive) | 21.3 µM (inactive) | 9.16 µM (inactive) | 2.78 µM (inactive) | 13.3 µM (inactive)
CCOc1c(Br)cc(Br)cc1C=C(C#N)C#N | 0.405 µM (active) | 7.53 µM (inactive) | – | 2.05 µM (inactive) | 6.27 µM (inactive) | 7.01 µM (inactive) | > 10 µM (inactive) | 4.29 µM (inactive) | 2.96 | > 10 µM (inactive) | 3.52 µM (inactive) | 5.73 µM (inactive) | 5.93 µM (inactive) | 1.27 µM (inactive) | 5.82 µM (inactive) | 0.942 µM (active) | – | 1.16 µM (inactive) | 0.227 µM (active)
N=C(N)NCCN1CC2CCC(CC2)C1 | > 100 µM (inactive) | > 100 µM (inactive) | > 100 µM (inactive) | > 100 µM (inactive) | > 100 µM (inactive) | > 100 µM (inactive) | > 100 µM (inactive) | > 100 µM (inactive) | > 100 | > 100 µM (inactive) | > 100 µM (inactive) | > 100 µM (inactive) | > 100 µM (inactive) | > 100 µM (inactive) | > 100 µM (inactive) | > 100 µM (inactive) | > 100 µM (inactive) | – | –
CCC(=O)O[C@H]1CC[C@H]2[C@@H]3CCC4=C/C(=N/OC(=O)c5cccc6c(=O)c7ccccc7[nH]c56)CC[C@]4(C)[C@H]3CC[C@]12C | – | 29.9 µM (inactive) | 18.6 µM (inactive) | 17.9 µM (inactive) | 42.9 µM (inactive) | 18.4 µM (inactive) | 22.2 µM (inactive) | 21.8 µM (inactive) | 21.3 | 18.3 µM (inactive) | 25.6 µM (inactive) | 51.4 µM (inactive) | 22.9 µM (inactive) | 31.7 µM (inactive) | 38.5 µM (inactive) | 19.9 µM (inactive) | 26.4 µM (inactive) | 18 µM (inactive) | –
COc1ccc2c(c1)C(=O)[C@@](Nc1ccc(C=O)cc1)(OC)[C@@](OC)(c1ccc([N+](=O)[O-])cc1)O2 | > 10 µM (inactive) | > 10 µM (inactive) | – | > 10 µM (inactive) | > 10 µM (inactive) | > 10 µM (inactive) | > 10 µM (inactive) | > 10 µM (inactive) | > 10 | > 10 µM (inactive) | > 10 µM (inactive) | > 10 µM (inactive) | > 10 µM (inactive) | > 10 µM (inactive) | > 10 µM (inactive) | > 10 µM (inactive) | > 10 µM (inactive) | > 10 µM (inactive) | > 10 µM (inactive)
CCCc1n[nH]c(=O)n1N1C(=O)C=CC1=O | > 100 µM (inactive) | > 100 µM (inactive) | > 100 µM (inactive) | > 100 µM (inactive) | > 100 µM (inactive) | > 100 µM (inactive) | > 100 µM (inactive) | > 100 µM (inactive) | > 100 | > 100 µM (inactive) | > 100 µM (inactive) | – | – | – | – | – | – | > 100 µM (inactive) | –
Cc1cc2c(-c3ccccc3)cc(=O)[nH]c2cc1N | > 100 µM (inactive) | > 100 µM (inactive) | – | > 100 µM (inactive) | > 100 µM (inactive) | > 100 µM (inactive) | > 100 µM (inactive) | > 100 µM (inactive) | > 100 | > 100 µM (inactive) | > 100 µM (inactive) | > 100 µM (inactive) | > 100 µM (inactive) | > 100 µM (inactive) | – | > 100 µM (inactive) | > 100 µM (inactive) | > 100 µM (inactive) | –
CC1(C)O[C@@H]([C@H](O)CO)[C@H](O)[C@@H](C2SCCCS2)O1 | > 100 µM (inactive) | > 100 µM (inactive) | – | > 10 µM (inactive) | > 100 µM (inactive) | > 100 µM (inactive) | > 100 µM (inactive) | > 100 µM (inactive) | > 100 | > 100 µM (inactive) | > 100 µM (inactive) | > 100 µM (inactive) | > 100 µM (inactive) | > 100 µM (inactive) | > 100 µM (inactive) | 50.6 µM (inactive) | > 100 µM (inactive) | – | –
N#CC1(C#N)NC(c2cccnc2)C(C#N)(C#N)NC1c1cccnc1 (centres undefined) | > 100 µM (inactive) | > 100 µM (inactive) | – | > 100 µM (inactive) | > 100 µM (inactive) | > 100 µM (inactive) | – | > 100 µM (inactive) | > 100 | > 100 µM (inactive) | > 100 µM (inactive) | – | > 100 µM (inactive) | > 100 µM (inactive) | > 100 µM (inactive) | > 100 µM (inactive) | – | > 100 µM (inactive) | > 100 µM (inactive)
CSc1nc(=O)cnn1C | > 100 µM (inactive) | > 100 µM (inactive) | > 100 µM (inactive) | > 100 µM (inactive) | > 100 µM (inactive) | > 100 µM (inactive) | > 100 µM (inactive) | > 100 µM (inactive) | > 100 | > 100 µM (inactive) | > 100 µM (inactive) | > 100 µM (inactive) | > 100 µM (inactive) | > 100 µM (inactive) | > 100 µM (inactive) | > 100 µM (inactive) | > 100 µM (inactive) | > 100 µM (inactive) | –
CC(=O)Nc1ccc(/N=N\c2c(O)c(S(=O)(=O)O)cc3cc(S(=O)(=O)O)ccc23)cc1 | > 100 µM (inactive) | > 100 µM (inactive) | > 100 µM (inactive) | – | > 100 µM (inactive) | > 100 µM (inactive) | – | > 100 µM (inactive) | > 100 | > 100 µM (inactive) | > 100 µM (inactive) | > 100 µM (inactive) | > 100 µM (inactive) | > 100 µM (inactive) | > 100 µM (inactive) | > 100 µM (inactive) | > 100 µM (inactive) | > 100 µM (inactive) | –
C1=C(CC2=C[P+](c3ccccc3)(c3ccccc3)C=C(c3ccccc3)O2)OC(c2ccccc2)=C[P+]1(c1ccccc1)c1ccccc1 | 0.332 µM (active) | 0.566 µM (active) | – | 0.489 µM (active) | 0.339 µM (active) | 0.684 µM (active) | 0.577 µM (active) | 0.184 µM (active) | 1.63 | 0.32 µM (active) | 0.269 µM (active) | 0.328 µM (active) | 0.325 µM (active) | 14.3 µM (inactive) | 0.362 µM (active) | 0.18 µM (active) | 1.56 µM (inactive) | – | 0.188 µM (active)
